Source: patent US4269842A, “Method for treating rhinoviral complaints” (Rhone-Poulenc Industries, priority 1979, dated 1981)
Converted amounts (≈) assume the structure as drawn.

How the values were obtained:
[1] = in vitro; assay type: cell-based; settings: human, mcr-5 fibroblasts
[2] = system: Rhinovirus type 1 A (R 2060 strain); test: Inhibition of cytopathogenic effect of rhinovirus type 1 A in human fibroblast cultures; assay type: cell-based, human rhinovirus type 1 A; settings: Enterovirus, 37° C., 3-4 days; for MIC: human fibroblasts, prevention of cytopathogenic effect, read-out: Minimum inhibitory concentration, Rhinovirus type 1 A; for inhibition at 15 µg/mL: Fibroblast, at 15 μg/cm^3, human fibroblasts, read-out: Inhibition of cytopathogenic effect, Rhinovirus type 1 A (printed in minimum inhibitory concentration column)
Experimental: (§1) The type 1 A (R 2060 strain) and type 1 B (R 1112 strain) human rhinoviruses have the property of forming foci of necrosis (cytopathogeniceffect) on single-layer cell cultures. The compounds of the formula (I), which prevent the formation of these foci, have been selected as active substances.
(§2) Decreasing concentrations of the same solution or suspension of the compound under test are added to fresh identical cell cultures, the highest concentration being the maximum non-cytotoxic concentration. About one hour after the compounds have been added, the cultures are inoculated with 0.2 cm^3 of a suitably diluted suspension of virus (in isotonic phosphate buffer), which is capable of destroying about 75% of cells (cytopathogenic effect). 5 Control cultures (without test compound) are also inoculated. All the cultures are then incubated at 37° C. in a "roller" tissue culture apparatus at the same time as 2 control cultures (without test compound or virus) which have received 0.2 cm^3 of isotonic phosphate buffer. 3-4 Days after the start of the experiment, the cytopathogenic effect of the virus is examined under a microscope. The active compounds are those which have prevented the appearance of the cytopathogenic effect, and those which have inhibited it by at least 50% are considered to be partially active.

[3] = system: Rhinovirus type 1 B (R 1112 strain); test: Inhibition of cytopathogenic effect of rhinovirus type 1 B in human fibroblast cultures; assay type: cell-based, human rhinovirus type 1 B; settings: Enterovirus, human fibroblasts, 37° C., 3-4 days, prevention of cytopathogenic effect, read-out: Minimum inhibitory concentration, Rhinovirus type 1 B
Experimental: as §1, §2

MNTC [1] [µg/mL]	Compound	MIC [2] [µg/mL]	MIC [3] [µg/mL]	inhibition at 15 µg/mL [2] [%]
> 30	c1cncc(N=C2SC[C@@H]3Cc4ccccc4CN23)c1 [Compound 1]	15 (≈ 53.3 µM)	0.15 (≈ 0.533 µM)	
> 60	c1ccc2c(c1)C[C@H]1CSC(=Nc3cccc4cnccc34)N1C2 [Compound 5]	0.7 (≈ 2.11 µM)	0.7 (≈ 2.11 µM)	
15	Clc1ncccc1N=C1SC[C@@H]2Cc3ccccc3CN12 [Compound 2, (S)-3-[(2-chloropyrid-3-yl)-imino]-1,5,10,10a-tetrahydrothiazolo[3,4-b]isoquinoline]		0.016 (≈ 0.0507 µM)	≥ 50
15	Fc1ncccc1N=C1SC[C@@H]2Cc3ccccc3CN12 [Compound 3, (S)-3-[(2-fluoropyrid-3-yl)-imino]-1,5,10,10a-tetrahydrothiazolo[3,4-b]-isoquinoline]	15 (≈ 50.1 µM)	0.016 (≈ 0.0534 µM)	
30	Cc1cc2c(N=C3SC[C@@H]4Cc5ccccc5CN34)cccc2cn1 [Compound 6, (S)-3-(3-methylisoquinol-5-yl)-imino-1,5,10,10a-tetrahydrothiazolo[3,4-b]isoquinoline]	1.5 (≈ 4.34 µM)	1.5 (≈ 4.34 µM)	
15	COc1ncccc1N=C1SC[C@@H]2Cc3ccccc3CN12 [Compound 4, (S)-3-[(2-methoxypyrid-3-yl)-imino]-1,5,10,10a-tetrahydrothiazolo[3,4-b]isoquinoline]		1.5 (≈ 4.82 µM)	≥ 50
